Experimental data as given in patent US12371428B2 (Exelixis, Inc., priority 2019, dated 2025).
pIC50: −log10 of the molar value. Structures can show the parent of a compound that is named as a salt.

Key:
[1] = target: Met (phospho-Met, HGF-stimulated PC-3 prostate cancer cells) (Homo sapiens (Human), UniProt P08581); assay: Met autophosphorylation ELISA in PC-3 cells (Example F); type: cell-based; conditions: cellular activity; Met autophosphorylation ELISA in PC-3 cells; read-out: c-Met IC50
Outline: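 PC-3 cells, serum-starved 3 h, were treated with compounds (8-point dose curve, 0.3% DMSO final) for 1 h, then stimulated with 100 ng/mL recombinant human HGF for 10 min. Lysate phospho-Met (panTyr) was quantified by sandwich ELISA; IC50 from 4-parameter logistic fit.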

[2] = target: Human MER (residues 528-999) (Homo sapiens (Human), UniProt Q12866); assay: Human Mer kinase assay, HTRF KinEase (Example C-2); type: biochemical; conditions: protocol of Example C-2 (other compounds)
Outline: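 IC50 values from 10 concentrations via 4-parameter logistic fit of […], with DMSO as 100% and 1 μM reference compound as 0% activity. Reaction: MER kinase domain 528-999, 1 ng/well, 40 μM ATP (Km), biotin peptide, 5 mM MgCl2, 1 mM DTT, 3% DMSO, room temperature 60 min; HTRF streptavidin-XL665/Eu-antibody detection.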

Sequence of Met (phospho-Met, HGF-stimulated PC-3 prostate cancer cells) (P08581 25-1390): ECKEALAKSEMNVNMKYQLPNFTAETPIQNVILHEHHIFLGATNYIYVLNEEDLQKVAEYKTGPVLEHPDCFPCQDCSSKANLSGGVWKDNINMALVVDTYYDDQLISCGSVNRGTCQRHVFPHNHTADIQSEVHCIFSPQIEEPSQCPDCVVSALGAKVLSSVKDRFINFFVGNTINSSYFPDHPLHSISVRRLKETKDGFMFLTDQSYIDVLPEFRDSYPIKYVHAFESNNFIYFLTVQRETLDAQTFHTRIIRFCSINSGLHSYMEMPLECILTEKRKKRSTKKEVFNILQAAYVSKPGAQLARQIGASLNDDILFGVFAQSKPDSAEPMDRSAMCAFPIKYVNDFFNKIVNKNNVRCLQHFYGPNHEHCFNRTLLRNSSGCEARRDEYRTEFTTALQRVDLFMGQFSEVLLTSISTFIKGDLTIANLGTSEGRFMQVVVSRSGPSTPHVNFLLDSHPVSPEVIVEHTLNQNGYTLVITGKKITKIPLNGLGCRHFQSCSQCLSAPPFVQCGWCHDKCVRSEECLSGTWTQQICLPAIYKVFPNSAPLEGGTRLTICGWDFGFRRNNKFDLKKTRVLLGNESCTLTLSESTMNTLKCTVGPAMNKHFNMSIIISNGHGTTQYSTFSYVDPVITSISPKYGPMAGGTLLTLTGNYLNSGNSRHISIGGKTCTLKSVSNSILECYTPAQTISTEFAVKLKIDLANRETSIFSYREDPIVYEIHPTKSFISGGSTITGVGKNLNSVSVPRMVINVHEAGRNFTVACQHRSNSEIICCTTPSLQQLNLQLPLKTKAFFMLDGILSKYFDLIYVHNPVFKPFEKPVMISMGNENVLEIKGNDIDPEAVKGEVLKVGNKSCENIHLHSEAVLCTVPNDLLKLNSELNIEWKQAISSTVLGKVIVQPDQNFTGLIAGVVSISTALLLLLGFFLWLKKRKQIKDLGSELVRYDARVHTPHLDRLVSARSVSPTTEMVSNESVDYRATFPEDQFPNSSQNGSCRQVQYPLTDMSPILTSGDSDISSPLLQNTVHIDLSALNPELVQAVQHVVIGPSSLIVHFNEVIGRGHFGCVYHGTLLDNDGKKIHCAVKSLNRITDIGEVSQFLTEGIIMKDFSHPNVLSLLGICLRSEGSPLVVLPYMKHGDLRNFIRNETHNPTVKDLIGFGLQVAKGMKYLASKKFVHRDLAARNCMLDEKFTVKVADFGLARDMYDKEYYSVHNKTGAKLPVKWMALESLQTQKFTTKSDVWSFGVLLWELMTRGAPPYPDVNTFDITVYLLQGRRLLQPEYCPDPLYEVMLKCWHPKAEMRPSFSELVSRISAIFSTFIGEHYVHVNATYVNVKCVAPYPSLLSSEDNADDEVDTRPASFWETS
Sequence of Human MER (residues 528-999) (Q12866 528-999): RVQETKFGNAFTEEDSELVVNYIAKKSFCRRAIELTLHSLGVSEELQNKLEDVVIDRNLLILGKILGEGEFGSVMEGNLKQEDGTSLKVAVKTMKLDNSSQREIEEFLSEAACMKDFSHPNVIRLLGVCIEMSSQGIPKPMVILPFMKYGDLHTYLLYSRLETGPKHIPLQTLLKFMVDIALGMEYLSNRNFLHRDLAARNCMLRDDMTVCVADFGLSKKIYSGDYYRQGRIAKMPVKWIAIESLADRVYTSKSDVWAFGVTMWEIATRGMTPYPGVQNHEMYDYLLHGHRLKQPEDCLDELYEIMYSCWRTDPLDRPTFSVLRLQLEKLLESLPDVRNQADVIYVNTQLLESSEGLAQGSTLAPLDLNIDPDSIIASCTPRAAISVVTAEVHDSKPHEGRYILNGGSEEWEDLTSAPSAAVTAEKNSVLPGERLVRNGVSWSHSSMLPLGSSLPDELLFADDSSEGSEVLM

| Structure (SMILES) | pIC50 [1] | pIC50 [2] |
| --- | --- | --- |
| COc1cnc2c(Oc3ccc(NC(=O)c4c(C)ncn(-c5ccc(F)cc5)c4=O)cc3F)ccnc2c1 [Compound 256, N-[3-Fluoro-4-[(7-methoxy-1,5-naphthyridin-4-yl)oxy]phenyl]-1-(4-fluorophenyl)-4-methyl-6-oxopyrimidine-5-carboxamide] | 6.52 to 7.00 | > 7.00 |
| COc1cnc2c(Oc3ccc(NC(=O)c4c(C)n(C)cc(-c5ccc(F)cc5)c4=O)cc3F)ccnc2c1 [Compound 239, N-[3-Fluoro-4-[(7-methoxy-1,5-naphthyridin-4-yl)oxy]phenyl]-5-(4-fluorophenyl)-1,2-dimethyl-4-oxopyridine-3-carboxamide] | 6.52 to 7.00 | > 7.00 |
| CCc1nc(C)c(-c2ccc(F)cc2)c(O)c1C(=O)Nc1ccc(Oc2ccnc3cc(OC)c(OC)nc23)cc1 [Compound 197, N-[4-[(6,7-Dimethoxy-1,5-naphthyridin-4-yl)oxy]phenyl]-2-ethyl-5-(4-fluorophenyl)-4-hydroxy-6-methylpyridine-3-carboxamide] | > 7.00 | > 7.00 |
| COCCOc1nc2c(Oc3ccc(NC(=O)c4cn(C)c(C)c(-c5ccc(F)cc5)c4=O)cc3F)ccnc2cc1OC [Compound 198, N-[3-Fluoro-4-[[7-methoxy-6-(2-methoxyethoxy)-1,5-naphthyridin-4-yl]oxy]phenyl]-5-(4-fluorophenyl)-1,6-dimethyl-4-oxopyridine-3-carboxamide] | > 7.00 | > 7.00 |
| CCc1nc(C)c(-c2ccc(F)cc2C)c(O)c1C(=O)Nc1ccc(Oc2ccnc3ccc(OC)nc23)c(F)c1 [Compound 206, 2-Ethyl-N-[3-fluoro-4-[(6-methoxy-1,5-naphthyridin-4-yl)oxy]phenyl]-5-(4-fluoro-2-methylphenyl)-4-hydroxy-6-methylpyridine-3-carboxamide] | > 7.00 | > 7.00 |
| COc1ccc2nccc(Oc3ccc(NC(=O)c4cnc(C)n(-c5ccc(F)cc5)c4=O)cc3F)c2n1 [Compound 232, N-[3-Fluoro-4-[(6-methoxy-1,5-naphthyridin-4-yl)oxy]phenyl]-1-(4-fluorophenyl)-2-methyl-6-oxopyrimidine-5-carboxamide] | > 7.00 | > 7.00 |
| CCc1nc(C)c(-c2ccc(F)cc2)c(O)c1C(=O)Nc1ccc(Oc2ccnc3cc(OC)cnc23)cc1 [Compound 188, 2-Ethyl-5-(4-fluorophenyl)-4-hydroxy-N-[4-[(7-methoxy-1,5-naphthyridin-4-yl)oxy]phenyl]-6-methylpyridine-3-carboxamide] | > 7.00 | > 7.00 |
| COc1cnc2c(Oc3ccc(NC(=O)c4cnc(CO)c(-c5ccc(F)cc5)c4O)cc3F)ccnc2c1 [Compound 217, N-[3-Fluoro-4-[(7-methoxy-1,5-naphthyridin-4-yl)oxy]phenyl]-5-(4-fluorophenyl)-4-hydroxy-6-(hydroxymethyl)pyridine-3-carboxamide] | > 7.00 | > 7.00 |
| COc1cnc2c(Oc3ccc(NC(=O)c4cn(C)c(C)c(-c5ccc(F)cc5C)c4=O)cc3F)ccnc2c1 [Compound 181, N-[3-Fluoro-4-[(7-methoxy-1,5-naphthyridin-4-yl)oxy]phenyl]-5-(4-fluoro-2-methylphenyl)-1,6-dimethyl-4-oxopyridine-3-carboxamide] | > 7.00 | > 7.00 |
| COc1cnc2c(Oc3ccc(NC(=O)c4cnc(C(F)(F)F)c(-c5ccc(F)cc5)c4O)cc3F)ccnc2c1 [Compound 241, N-[3-Fluoro-4-[(7-methoxy-1,5-naphthyridin-4-yl)oxy]phenyl]-5-(4-fluorophenyl)-4-hydroxy-6-(trifluoromethyl)pyridine-3-carboxamide] | > 7.00 | > 7.00 |
| COc1ccc2nccc(Oc3ccc(NC(=O)c4n[nH]c(C)c(-c5ccc(F)cc5C)c4=O)cc3F)c2n1 [Compound 230, N-[3-Fluoro-4-[(6-methoxy-1,5-naphthyridin-4-yl)oxy]phenyl]-5-(4-fluoro-2-methylphenyl)-6-methyl-4-oxo-1H-pyridazine-3-carboxamide] | 6.52 to 7.00 | > 7.00 |
| COc1cc2nccc(Oc3ccc(NC(=O)c4cn(C(C)C)c(C)c(-c5ccc(F)cc5C)c4=O)cc3F)c2nc1OC [Compound 32, N-[4-[(6,7-Dimethoxy-1,5-naphthyridin-4-yl)oxy]-3-fluorophenyl]-5-(4-fluoro-2-methylphenyl)-6-methyl-4-oxo-1-propan-2-ylpyridine-3-carboxamide hydrochloride] | > 7.00 | > 7.00 |
| COc1cnc2c(Oc3ccc(NC(=O)c4ccc(C)n(-c5ccc(F)cc5)c4=O)cc3)ccnc2c1 [Compound 216, 1-(4-Fluorophenyl)-N-[4-[(7-methoxy-1,5-naphthyridin-4-yl)oxy]phenyl]-6-methyl-2-oxopyridine-3-carboxamide] | > 7.00 | > 7.00 |
| COCCOc1nc2c(Oc3ccc(NC(=O)c4c(COC)nc(C)c(-c5ccc(F)cc5)c4O)cc3F)ccnc2cc1OC [Compound 199, N-[3-Fluoro-4-[[7-methoxy-6-(2-methoxyethoxy)-1,5-naphthyridin-4-yl]oxy]phenyl]-5-(4-fluorophenyl)-4-hydroxy-2-(methoxymethyl)-6-methylpyridine-3-carboxamide] | > 7.00 | > 7.00 |
| COc1cc2nccc(Oc3ccc(NC(=O)c4cn(CC(F)(F)F)c(C)c(-c5ccc(F)cc5)c4=O)cc3F)c2cc1OC [Compound 259, N-[4-(6,7-Dimethoxyquinolin-4-yl)oxy-3-fluorophenyl]-5-(4-fluorophenyl)-6-methyl-4-oxo-1-(2,2,2-trifluoroethyl)pyridine-3-carboxamide] | > 7.00 | > 7.00 |
| COc1cnc2c(Oc3ccc(NC(=O)c4n[nH]c(C)c(-c5ccc(F)cc5)c4=O)cc3)ccnc2c1 [Compound 245, 5-(4-Fluorophenyl)-N-[4-[(7-methoxy-1,5-naphthyridin-4-yl)oxy]phenyl]-6-methyl-4-oxo-1H-pyridazine-3-carboxamide] | > 7.00 | > 7.00 |
| CCc1nc(C)c(-c2ccc(F)cc2C)c(O)c1C(=O)Nc1ccc(Oc2ccnc3cc(OC)c(OC)nc23)c(F)c1 [Compound 202, N-[4-[(6,7-Dimethoxy-1,5-naphthyridin-4-yl)oxy]-3-fluorophenyl]-2-ethyl-5-(4-fluoro-2-methylphenyl)-4-hydroxy-6-methylpyridine-3-carboxamide] | > 7.00 | > 7.00 |
| CCc1nc(C)c(-c2ccc(F)cc2)c(O)c1C(=O)Nc1ccc(Oc2ccnc3ccc(OC)nc23)c(F)c1 [Compound 182, 2-Ethyl-N-[3-fluoro-4-[(6-methoxy-1,5-naphthyridin-4-yl)oxy]phenyl]-5-(4-fluorophenyl)-4-hydroxy-6-methylpyridine-3-carboxamide] | > 7.00 | > 7.00 |
| COc1cnc2c(Oc3ccc(NC(=O)c4ccc(C)n(-c5ccc(F)cc5C)c4=O)cc3F)ccnc2c1 [Compound 220, N-[3-Fluoro-4-[(7-methoxy-1,5-naphthyridin-4-yl)oxy]phenyl]-1-(4-fluoro-2-methylphenyl)-6-methyl-2-oxopyridine-3-carboxamide] | > 7.00 | > 7.00 |
| COc1cnc2c(Oc3ccc(NC(=O)c4cn(C)c(CO)c(-c5ccc(F)cc5)c4=O)cc3F)ccnc2c1 [Compound 222, N-[3-Fluoro-4-[(7-methoxy-1,5-naphthyridin-4-yl)oxy]phenyl]-5-(4-fluorophenyl)-6-(hydroxymethyl)-1-methyl-4-oxopyridine-3-carboxamide] | > 7.00 | > 7.00 |
| COc1cnc2c(Oc3ccc(NC(=O)c4c(C)nc(C)c(-c5ccc(F)cc5C)c4O)cc3F)ccnc2c1 [Compound 178, N-[3-Fluoro-4-[(7-methoxy-1,5-naphthyridin-4-yl)oxy]phenyl]-5-(4-fluoro-2-methylphenyl)-4-hydroxy-2,6-dimethylpyridine-3-carboxamide] | > 7.00 | > 7.00 |
| COc1cc2nccc(Oc3ccc(NC(=O)c4ncc(C)n(-c5ccc(F)cc5)c4=O)cc3)c2nc1OC [Compound 262, N-[4-[(6,7-Dimethoxy-1,5-naphthyridin-4-yl)oxy]phenyl]-4-(4-fluorophenyl)-5-methyl-3-oxopyrazine-2-carboxamide] | > 7.00 | > 7.00 |
| COc1ccc(-c2c(C)n(C(C)C)cc(C(=O)Nc3ccc(Oc4ccnc5cc(OC)c(OC)nc45)c(F)c3)c2=O)cc1 [Compound 31, N-[4-[(6,7-dimethoxy-1,5-naphthyridin-4-yl)oxy]-3-fluorophenyl]-5-(4-methoxyphenyl)-6-methyl-4-oxo-1-propan-2-ylpyridine-3-carboxamide hydrochloride] | 6.52 to 7.00 | > 7.00 |
| COCCOc1nc2c(Oc3ccc(NC(=O)c4cn(C)c(CO)c(-c5ccc(F)cc5)c4=O)cc3F)ccnc2cc1OC [Compound 228, N-[3-Fluoro-4-[[7-methoxy-6-(2-methoxyethoxy)-1,5-naphthyridin-4-yl]oxy]phenyl]-5-(4-fluorophenyl)-6-(hydroxymethyl)-1-methyl-4-oxopyridine-3-carboxamide] | > 7.00 | > 7.00 |
| COc1ccc2nccc(Oc3ccc(NC(=O)c4c(C)ncc(-c5ccc(F)cc5)c4O)cc3F)c2n1 [Compound 242, N-[3-Fluoro-4-[(6-methoxy-1,5-naphthyridin-4-yl)oxy]phenyl]-5-(4-fluorophenyl)-4-hydroxy-2-methylpyridine-3-carboxamide] | > 7.00 | > 7.00 |
